Results: patent US6566355B1 (Hoffmann-La Roche Inc., priority 1991, dated 2003)
Counter-ions that a name gives are not always drawn. Like-named read-outs stand apart in the source and are kept apart here.

Key:
β-lactamase = target: T1, β-lactamase (Citrobacter freundii, UniProt P05193); assay: biochemical
T1 construct: Various β-lactamases can be isolated from penicillin- or cephalosporin-resistant bacterial strains such as; endogenous in cells; host or cells: Citrobacter freundii 1203 (enzyme purified from the crude cell extract, after ampicillin induction when necessary)
Protocol: A. Isolation of the β-lactamases
Various β-lactamases can be isolated from penicillin- or cephalosporin-resistant bacterial strains such as Klebsiella pneumoniae NCTC 418, Proteus vulgaris 1028, Bacillus licheniformis 749/C, Escherichia coli SN01 and Citrobacter freundii 1203. For this purpose, the corresponding strains are cultivated in Tryptic Soy Broth (Difco) and harvested by centrifugation in the last logarithmic growth phase (when necessary 50-100 mg/l of ampicillin are added to the medium towards the end of the log-phase in order to induce the β-lactamase). The thus-obtained bacterial mass is treated with 20 mM Tris-HCl buffer (pH 7.0); the cells are broken open with a French press while cooling. The mixture is centrifuged (20,000 r/min.) for 20-30 minutes and a clear crude extract is obtained.
B. Determination of the β-lactamase activity
The determination of the activity of the isolated β-lactamases can be carried out according to the method of O'Callaghan, C. H. et al. [Antimicr. Ag. Chemother., 1, 283-288 (1972)] using the chromogenic cephalosporin nitrocefin (87/312 from Glaxo). The requisite test batch contains per ml of water: 50 mM phosphate buffer (pH 7.0), 0.1 mM nitrocefin and sufficient enzyme (β-lactamase) to achieve a ΔA/min. of about 0.1. The cleavage of the substrate, which is accompanied by a change in colour, is effected at 37° C. and is followed quantitatively at 482 nm using a spectral photometer.
C. Determination of the β-lactamase-inhibiting activity of the compounds of general formula I
The above-described cleavage of the chromogenic substrate by β-lactamases (test B.) can be inhibited by the addition of compounds of general formula I (inhibitors). […] As a measurement for the affinity of the particular tested inhibitor to the β-lactamase, which is a measurement of the strength of the inhibitor, there serves that concentration which inhibits by 50% (IC 50 in nM) the cleavage of the substrate (nitrocefin) effected under the above test conditions (test B) in the absence of an inhibitor. […] The determination of the IC50 was effected by means of a graph.
(Test organism: Citrobacter freundii)

Citrobacter freundii = assay: MIC in vitro of a 1:4 combination of ceftriaxone with a compound of formula I (test D); assay type: cell-based
Protocol: D. Determination of the β-lactamase-inhibiting activity by combination of a compound of general formula I with ceftriaxone
The minimum inhibitory concentration in vitro (MIC in μg/ml) of a 1:4 combination of ceftriaxone with a compound of formula I against Citrobacter freundii is measured and compiled in Table 2 hereinafter.

[1] = 1:4 combination of ceftriaxone with the compound
[2] = isolated β-lactamase of Citrobacter freundii, substrate nitrocefin 0.1 mM, 15 minutes pre-incubation with inhibitor, 37° C., pH 7.0, read-out: IC 50 nM
[3] = IC 50 nM, isolated β-lactamase of Citrobacter freundii, substrate nitrocefin 0.1 mM, 15 minutes pre-incubation with inhibitor, 37° C., pH 7.0

T1 sequence (P05193 21-381): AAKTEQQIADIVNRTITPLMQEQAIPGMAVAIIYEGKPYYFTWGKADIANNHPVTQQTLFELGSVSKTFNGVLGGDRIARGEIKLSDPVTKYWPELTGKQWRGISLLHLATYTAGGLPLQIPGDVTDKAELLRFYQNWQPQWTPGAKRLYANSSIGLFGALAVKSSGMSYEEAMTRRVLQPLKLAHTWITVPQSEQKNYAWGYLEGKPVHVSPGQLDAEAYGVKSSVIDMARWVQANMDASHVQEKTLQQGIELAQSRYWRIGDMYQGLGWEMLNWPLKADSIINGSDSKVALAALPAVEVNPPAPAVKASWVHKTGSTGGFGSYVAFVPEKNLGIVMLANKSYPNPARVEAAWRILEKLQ

O=C(O)C(C(=O)N1CC[C@@H]2[C@H]1C(=O)N2S(=O)(=O)O)c1ccsc1 (mixture of isomers) [6(e), (R/S)-α-(1S,5R)-2-[2-carboxy-2-(3-thienyl)acetyl]-7-oxo-2,6-diazabicyclo[3.2.0]heptane-6-sulphonic acid triethylamine salt (1:1)]
IC50 (β-lactamase): 465 nM
MIC (Citrobacter freundii; [1]): 4 µg/mL

O=C(c1cc2ccccc2[nH]1)N1CC[C@@H]2[C@H]1C(=O)N2S(=O)(=O)O (racemic) [6(j)]
IC50 (β-lactamase; [2]): 280 nM

CCN(CC)CC.Nc1nc(C(N)C(=O)N2CC[C@@H]3[C@H]2C(=O)N3S(=O)(=O)O)cs1 (mixture of isomers) [6(r), (1S,5R)-2-[DL-2-(2-Amino-4-thiazolyl)glycyl] -7-oxo-2,6-diazabicyclo[3.2.0]heptane-6-sulphonic acid triethylamine salt]
MIC (Citrobacter freundii; [1]): 2 µg/mL

CC(C)(C)OC(=O)N1CC[C@@H]2[C@H]1C(=O)N2S(=O)(=O)O [1(b), sodium salt]
IC50 (β-lactamase; [2]): 225 nM

O=C(NCC(=O)N1CC[C@@H]2[C@H]1C(=O)N2S(=O)(=O)O)OCc1ccccc1 [4(g), Benzyl[[[(1S,5R)-7-oxo-6-sulpho-2,6-diazabicyclo[3.2.0]-hept-2-yl]carbonyl]methyl]carbamate]
IC50 (β-lactamase): 390 nM

CC(=O)N/C(=C\c1ccccc1)C(=O)N1CC[C@@H]2[C@H]1C(=O)N2S(=O)(=O)[O-].[Na+] [5(f), (1S,5R)-2-[(Z)-3-α-Acetamidocinnamoyl]-7-oxo-2,6-diazabicyclo[3.2.0]heptane-6-sulphonic acid sodium salt]
MIC (Citrobacter freundii; [1]): 16 µg/mL

CSCC[C@@H](NC(=O)c1ccccc1)C(=O)N1CC[C@@H]2[C@H]1C(=O)N2S(=O)(=O)O.[Na] [5(h), (1S,5R)-2-[(R,S)-2-Benzamido-4-(methylthio)butyryl]-7-oxo-2,6-diazabicyclo[3.2.0]heptane-6-sulphonic acid sodium salt]
MIC (Citrobacter freundii; [1]): 4 µg/mL

O=C(CNc1ccc2c(C(F)(F)F)cc(=O)oc2c1)N1CC[C@@H]2[C@H]1C(=O)N2S(=O)(=O)O [5(n), (1S,5R)-2-[N-[2-Oxo-4-(trifluoromethyl)-2H-1-benzopyran-7-yl]glycyl]-7-oxo-2,6-diazabicyclo[3.2.0]heptane-6-sulphonic acid sodium salt]
IC50 (β-lactamase; [3]): 67 nM

O=C([C@H](O)c1ccccc1)N1CC[C@@H]2[C@H]1C(=O)N2S(=O)(=O)[O-].[Na+] [6(k), (1S,5R)-2-[(R)-α-Hydroxyphenylacetyl]-7-oxo-2,6-diazabicyclo[3.4.0]heptane-6-sulphonic acid sodium salt (1:1)]
MIC (Citrobacter freundii; [1]): 8 µg/mL

CCN(CC)CC.O=C([C@@H](O)c1ccccc1)N1CC[C@@H]2[C@H]1C(=O)N2S(=O)(=O)O [6(l), (1S,5R)-2-[(S)-α-Hydroxyphenylacetyl]-7-oxo-2,6-diazabicyclo[3.2.0]heptane-6-sulphonic triethylamine salt (1:1)]
MIC (Citrobacter freundii; [1]): 8 µg/mL

O=C(/C=C/c1ccc(O)cc1)N1CC[C@@H]2[C@H]1C(=O)N2S(=O)(=O)O [6(t), (1S,5R)-(E)-2-[3-(4-Hydroxy-phenyl)acryloyl]-7-oxo-2,6-diazabicyclo[3.2.0]heptane-6-sulphonic acid sodium salt]
IC50 (β-lactamase; [3]): 12 nM

Nc1nnc(SCC(=O)Nc2nnc(SCC(=O)N3CC[C@@H]4[C@H]3C(=O)N4S(=O)(=O)O)s2)s1 [6(w), (1S,5R)-2-[5-(5-Amino-1,3,4-thiadiazol-2-ylsulfanylacetylamino)-1,3,4-thiadiazol-2-ylsulfanylacetyl]-7-oxo-2,6-diazabicyclo[3.2.0]heptane-6-sulfonic acid sodium salt]
IC50 (β-lactamase; [3]): 22 nM

COC(=O)/C=C1\CN(C(=O)OCc2ccccc2)[C@@H]2C(=O)N(S(=O)(=O)O)[C@H]12 [14(a), (1S,5R)-(E)-4-Methoxycarbonylmethylene-7-oxo-6-sulpho-2,6-diazabicyclo[3.2.0]heptane-2-carboxylic acid benzyl ester sodium salt]
IC50 (β-lactamase; [3]): 32 nM

NC(=O)/C=C1\CN(C(=O)OCc2ccccc2)[C@@H]2C(=O)N(S(=O)(=O)O)[C@H]12 [14(b), (1S,5R)(E)-2-Benzyloxycarbonyl-4-carbamoylmethylene-7-oxo-2,6-diazabicyclo[3.2.0]heptane-6-sulphonic acid sodium salt]
IC50 (β-lactamase; [3]): 65 nM

NC(=O)/C=C1/CN(C(=O)OCc2ccccc2)[C@@H]2C(=O)N(S(=O)(=O)O)[C@H]12 [14(c), (1S,5R)(Z)-2-Benzyloxycarbonyl-4-carbamoylmethylene-7-oxo-2,6-diazabicyclo[3.2.0]heptane-6-sulphonic acid sodium salt]
IC50 (β-lactamase; [3]): 826 nM

O=C(OCc1ccccc1)N1C[C@H](F)[C@@H]2[C@H]1C(=O)N2S(=O)(=O)O [16(a), (1S,4S,5S)-4-Fluoro-7-oxo-6-sulpho-2,6-diazabicyclo[3.2.0]heptane-2-carboxylic acid benzyl ester sodium salt]
IC50 (β-lactamase; [3]): 14 nM

O=C(OCc1ccccc1)N1C[C@@H](Cl)[C@@H]2[C@H]1C(=O)N2S(=O)(=O)O [16(b), (1S,4R,5S)-2-Benzyloxycarbonyl-4-chloro-7-oxo-2,6-diazabicyclo[3.2.0]heptane-6-sulphonic acid sodium salt]
IC50 (β-lactamase; [3]): 334 nM

O=C(NC1CCC1)N1CC[C@@H]2[C@H]1C(=O)N2S(=O)(=O)O [17(h), (1S,5R)-2-Cyclobutylcarbamoyl)-7-oxo-2,6-diazabicyclo[3.2.0]heptane-6-sulphonic acid sodium salt]
IC50 (β-lactamase): 145 nM

O=C(NC1CC1)N1CC[C@@H]2[C@H]1C(=O)N2S(=O)(=O)O [17(i), (1S,5R)-2-Cyclopropylcarbamoyl)-7-oxo-2,6-diazabicyclo[3.2.0]heptane-6-sulphonic acid sodium salt]
IC50 (β-lactamase): 245 nM

O=C(NCc1cccs1)N1CC[C@@H]2[C@H]1C(=O)N2S(=O)(=O)O [17(p), (1S,5R)-2-(2-Thien-2-ylmethylcarbamoyl)-7-oxo-2,6-diazabicyclo[3.2.0]heptane-6-sulphonic acid sodium salt]
IC50 (β-lactamase): 383 nM

O=C1[C@H](NC(=O)N2CC[C@@H]3[C@H]2C(=O)N3S(=O)(=O)O)CCN1O [17(r), sodium salt]
IC50 (β-lactamase; read-out: IC 50 nM, isolated β-lactamase of Citrobacter freundii, substrate nitrocefin 0.1 mM, 15 minutes pre-incubation with inhibitor, 37° C., pH 7.0): 490 nM

O=C(Nc1cccc(O)c1)N1CC[C@@H]2[C@H]1C(=O)N2S(=O)(=O)O [17(s), (1S,5R)-2-(3-Hydroxyphenylcarbamoyl)-7-oxo-2,6-diazabicyclo[3.2.0]heptane-6-sulphonic acid sodium salt]
IC50 (β-lactamase; [3]): 38 nM

O=C1SCC[C@@H]1NC(=O)N1CC[C@@H]2[C@H]1C(=O)N2S(=O)(=O)O [17(t), (1S,5R)-7-Oxo-2-(S)-(2-oxo-3-tetrahydrothienyl-carbamoyl)-2,6-diazabicyclo[3.2.0]heptane-6-sulphonic acid sodium salt]
IC50 (β-lactamase): 53 nM

O=C(Nc1ccc(O)cc1)N1CC[C@@H]2[C@H]1C(=O)N2S(=O)(=O)O [17(w), (1S,5R)-2-(4-Hydroxyphenylcarbamoyl)-7-oxo-2,6-diazabicyclo[3.2.0]heptane-6-sulphonic acid sodium salt]
IC50 (β-lactamase; [3]): 109 nM

CO/N=C(\C(=O)N[C@@H]1C(=O)N2C(C(=O)O)=C(CSc3nc(=O)c(=O)[nH]n3C)CS[C@H]12)c1csc(N)n1 [Ceftriaxone, ceftriaxone, reference compound]
MIC (Citrobacter freundii; ceftriaxone alone (control), read-out: MIC): 128 µg/mL

O=C(OCc1ccccc1)N1C[C@@H](Cl)[C@@H]2[C@H]1C(=O)N2S(=O)(=O)O [Example 15, (1S,4R,5S)-2-Benzyloxycarbonyl-4-chloro-7-oxo-2,6-diazabicyclo[3.2.0]heptane-6-sulphonic acid sodium salt]
IC50 (β-lactamase; [3]): 630 nM

COC(=O)NN1CC[C@@H]2[C@H]1C(=O)N2S(=O)(=O)[O-].[Na+] [Example 18, Methyl (1S,5R)-7-oxo-6-sulpho-2,6-diazabicyclo[3.2.0]heptane-2-carbamate sodium salt]
MIC (Citrobacter freundii; [1]): 1 µg/mL

Cn1nnnc1S[C@@H]1CN(C(=O)OCc2ccccc2)[C@@H]2C(=O)N(S(=O)(=O)O)[C@@H]21 [Example 22, (1S,4R,5S)-2-Benzyloxycarbonyl-4-(1-methyl-1H-tetrazol-5-yl-thio)-7-oxo-2,6-diazabicyclo[3.2.0]heptane-6-sulphonic acid sodium salt]
IC50 (β-lactamase; [3]): 220 nM

(1S,5R)-(E)-3-Phenyl-acryloyl-2,6-diazabicyclo[3.2.0]heptane-6-sulphonic acid sodium salt [11(a)]
MIC (Citrobacter freundii; [1]): 8 µg/mL
